Assay results from patent publication US9481670B2, “Triazine compounds” (Sphaera Pharma PTE. Ltd., priority 2011, dated 2016).

Biological target: T1, PI3K alpha (Homo sapiens, UniProt P42336)
T1 construct: purchased Millipore Upstate
Assay: P110 Alpha TR-FRET Assay (PI3K alpha kinase assay, HTRF Transcreener ADP Assay)
Type: biochemical
Settings: PI3K (WT)
Summary of the method: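 Enzyme (50 ng) and compound were preincubated 20 min in HEPES pH 7.5 buffer containing MgCl2, DTT and vanadate before 10 μM ATP plus 5 μM PIP2 substrate was added for 20 min. ADP produced was quantified by TR-FRET (ADP-d2, anti-ADP cryptate, 1 h).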

T1 sequence (P42336 whole entry): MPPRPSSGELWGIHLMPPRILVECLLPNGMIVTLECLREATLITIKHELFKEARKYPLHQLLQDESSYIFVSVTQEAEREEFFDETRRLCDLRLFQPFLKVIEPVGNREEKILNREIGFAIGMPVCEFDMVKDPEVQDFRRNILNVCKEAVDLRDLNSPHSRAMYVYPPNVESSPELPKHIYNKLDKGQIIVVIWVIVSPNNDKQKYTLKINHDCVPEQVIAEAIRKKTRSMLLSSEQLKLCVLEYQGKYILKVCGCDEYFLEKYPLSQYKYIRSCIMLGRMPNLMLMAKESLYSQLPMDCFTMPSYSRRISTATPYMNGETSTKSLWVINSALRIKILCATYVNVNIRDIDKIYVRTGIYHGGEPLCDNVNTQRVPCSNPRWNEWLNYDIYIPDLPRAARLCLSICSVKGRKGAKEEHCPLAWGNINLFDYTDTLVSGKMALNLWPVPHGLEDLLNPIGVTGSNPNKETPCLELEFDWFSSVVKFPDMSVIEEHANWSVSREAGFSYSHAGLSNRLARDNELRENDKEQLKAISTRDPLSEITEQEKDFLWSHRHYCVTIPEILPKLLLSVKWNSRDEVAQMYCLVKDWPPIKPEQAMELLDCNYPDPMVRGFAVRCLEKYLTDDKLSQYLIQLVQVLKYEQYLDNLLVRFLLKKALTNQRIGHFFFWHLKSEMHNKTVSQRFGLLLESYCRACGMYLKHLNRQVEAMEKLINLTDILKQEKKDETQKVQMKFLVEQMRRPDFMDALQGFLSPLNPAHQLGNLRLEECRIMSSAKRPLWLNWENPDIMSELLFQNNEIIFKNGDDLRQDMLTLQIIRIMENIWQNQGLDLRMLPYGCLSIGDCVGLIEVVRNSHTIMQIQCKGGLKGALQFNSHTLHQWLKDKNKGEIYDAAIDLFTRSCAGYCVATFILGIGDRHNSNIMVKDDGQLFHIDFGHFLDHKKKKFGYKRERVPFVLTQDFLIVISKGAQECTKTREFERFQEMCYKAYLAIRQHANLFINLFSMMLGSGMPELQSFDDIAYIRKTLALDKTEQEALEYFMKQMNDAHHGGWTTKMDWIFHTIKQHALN
T1 sequence (P27986 whole entry partner): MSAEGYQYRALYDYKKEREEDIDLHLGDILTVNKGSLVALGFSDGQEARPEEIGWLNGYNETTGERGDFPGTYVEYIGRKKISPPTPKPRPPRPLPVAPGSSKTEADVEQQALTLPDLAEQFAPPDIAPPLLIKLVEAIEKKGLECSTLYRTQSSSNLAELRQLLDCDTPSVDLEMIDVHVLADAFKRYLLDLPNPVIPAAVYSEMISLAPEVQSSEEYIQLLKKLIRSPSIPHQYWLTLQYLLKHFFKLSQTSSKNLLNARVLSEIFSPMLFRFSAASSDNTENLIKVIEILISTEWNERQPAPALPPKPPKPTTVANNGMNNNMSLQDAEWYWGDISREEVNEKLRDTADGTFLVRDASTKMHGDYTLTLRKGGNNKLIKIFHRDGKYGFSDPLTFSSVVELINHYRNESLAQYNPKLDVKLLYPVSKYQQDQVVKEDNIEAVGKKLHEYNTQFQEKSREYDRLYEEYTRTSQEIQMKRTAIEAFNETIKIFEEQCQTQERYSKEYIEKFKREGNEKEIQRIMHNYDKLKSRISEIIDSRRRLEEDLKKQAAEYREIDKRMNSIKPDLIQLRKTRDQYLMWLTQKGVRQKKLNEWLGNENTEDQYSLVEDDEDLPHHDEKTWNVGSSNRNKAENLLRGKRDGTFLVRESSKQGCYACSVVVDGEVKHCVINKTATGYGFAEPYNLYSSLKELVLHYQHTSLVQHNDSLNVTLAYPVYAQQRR

| Compound | IC50 |
| --- | --- |
| CN(C)C(=O)c1ccc(Oc2nc(-c3cccc4[nH]ncc34)nc(N3CCOCC3)n2)nc1 [Compound 1072, 6-14-{[4-1-(1H-indazol-4-yl)-6-5-(morpholin-4-yl)-1,3,5-triazin-2-yl]oxy}-N,N-dimethylpyridine-3-carboxamide] | > 5 µM |
| CN(C)C(=O)c1ccc(Oc2nc(-c3cccc4[nH]ncc34)nc(N3CCCOCC3)n2)cc1 [Compound 1073, 4-7-{[4-5-(1H-indazol-4-yl)-6-3-(1,4-oxazepan-4-yl)-1,3,5-triazin-2-yl]oxy}-N,N-dimethylbenzamide] | < 5 µM |
| CS(=O)(=O)N1CCN(C(=O)CNc2nc(-c3ccc(O)nc3)nc(N3CCOCC3)n2)CC1 [Compound 1074, 2-((4-(6-hydroxypyridin-3-yl)-6-morpholino-1,3,5-triazin-2-yl)amino)-1-(4-(methylsulfonyl)piperazin-1-yl)ethanone] | < 5 µM |
| COC1CN(c2nc(Oc3ccc(C(=O)N(C)C)cc3)nc(-c3cccc4[nH]ncc34)n2)C1 [Compound 1075, 4-9-{[4-1-(1H-indazol-4-yl)-6-5-(3-29-methoxyazetidin-1-yl)-1,3,5-triazin-2-yl]oxy}-N,N-dimethylbenzamide] | > 5 µM |
| CC(Nc1nc(-c2cccc(O)c2)nc(N2CCOCC2)n1)C(=O)N1CCN(S(C)(=O)=O)CC1 (stereo not shown) [Compound 1076, 2-((4-(3-hydroxyphenyl)-6-morpholino-1,3,5-triazin-2-yl)amino)-1-(4-(methylsulfonyl)piperazin-1-yl)propan-1-one] | < 5 µM |
| Nc1ncc(-c2nc(N3CCNCC3)nc(N3CCOCC3)n2)cn1 [Compound 1077, 5-13-[4-5-(morpholin-4-yl)-6-3-(piperazin-1-yl)-1,3,5-triazin-2-yl]pyrimidin-2-amine] | < 5 µM |
| O=C(O)CNc1nc(-c2cccc3c2CCC3=O)nc(N2CCOCC2)n1 [Compound 1078, 2-((4-morpholino-6-(1-oxo-2,3-dihydro-1H-inden-4-yl)-1,3,5-triazin-2-yl)amino)acetic acid] | > 5 µM |
| COc1cccc(-c2nc(NCC(=O)N3CCN(S(C)(=O)=O)CC3)nc(N3CCOCC3)n2)c1 [Compound 1079, 2-((4-(3-methoxyphenyl)-6-morpholino-1,3,5-triazin-2-yl)amino)-1-(4-(methylsulfonyl)piperazin-1-yl)ethanone] | > 5 µM |
| CS(=O)(=O)N1CCN(C(=O)CNc2nc(-c3ccc(F)nc3)nc(N3CCOCC3)n2)CC1 [Compound 1080, 2-((4-(6-fluoropyridin-3-yl)-6-morpholino-1,3,5-triazin-2-yl)amino)-1-(4-(methylsulfonyl)piperazin-1-yl)ethanone] | > 5 µM |
| CNC(=O)c1ccc(Oc2nc(-c3cnc(N)s3)nc(N3CCOCC3)n2)cc1 [Compound 1082] | < 5 µM |
| CS(=O)(=O)N[C@@H]1CC[C@@H](Oc2nc(-c3cccc4[nH]ncc34)nc(N3CCOCC3)n2)C1 [Compound 1083, N-[(1R,3R)-3-14-{[4-1-(1H-indazol-4-yl)-6-5-(morpholin-4-yl)-1,3,5-triazin-2-yl]oxy}cyclopentyl]methanesulfonamide] | < 5 µM |
| c1ccc(Nc2nc(-c3cccc4c3cnn4C3CCCCO3)nc(N3CCOCC3)n2)cc1 (stereo not shown) [Compound 1084, 4-morpholino-N-phenyl-6-(1-(tetrahydro-2H-pyran-2-yl)-1H-indazol-4-yl)-1,3,5-triazin-2-amine] | > 5 µM |
| CN(C)C(=O)Cc1ccc(Oc2nc(-c3cccc4[nH]ncc34)nc(N3CCOCC3)n2)cc1 [Compound 1085, 2-27-(4-14-{[4-1-(1H-indazol-4-yl)-6-5-(morpholin-4-yl)-1,3,5-triazin-2-yl]oxy}phenyl)-N,N-dimethylacetamide] | < 5 µM |
| O=c1[nH]c2ccc(Oc3nc(-c4cccc5[nH]ncc45)nc(N4CCOCC4)n3)cc2[nH]1 [Compound 1086, 5-23-{[4-1-(1H-indazol-4-yl)-6-5-(morpholin-4-yl)-1,3,5-triazin-2-yl]oxy}-2,3-dihydro-1H-1,3-benzodiazol-2-one] | < 5 µM |
| CN(C)C(=O)N1CCCC(Oc2nc(-c3cccc4[nH]ncc34)nc(N3CCOCC3)n2)CC1 (stereo not shown) [Compound 1087, 4-14-{[4-1-(1H-indazol-4-yl)-6-5-(morpholin-4-yl)-1,3,5-triazin-2-yl]oxy}-N,N-dimethylazepane-1-carboxamide] | < 5 µM |
| CN(C)C(=O)c1cccc(Oc2nc(-c3cccc4[nH]ncc34)nc(N3CCOCC3)n2)c1 [Compound 1088, 3-22-{[4-1-(1H-indazol-4-yl)-6-5-(morpholin-4-yl)-1,3,5-triazin-2-yl]oxy}-N,N-dimethylbenzamide] | < 5 µM |
| CS(=O)(=O)N1CCN(C(=O)CNc2nc(-c3cccc(O)c3)nc(N3CCOCC3)n2)CC1 [Compound 1089, 2-((4-(3-hydroxyphenyl)-6-morpholino-1,3,5-triazin-2-yl)amino)-1-(4-(methylsulfonyl)piperazin-1-yl)ethanone] | < 5 µM |
| NC(=O)C(Cc1ccccc1)Nc1nc(-c2cccc(O)c2)nc(N2CCOCC2)n1 (stereo not shown) [Compound 1090, 2-((4-(3-hydroxyphenyl)-6-morpholino-1,3,5-triazin-2-yl)amino)-3-phenylpropanamide] | < 5 µM |
| CN(C)C(=O)N1CCCC(Oc2nc(-c3cccc4[nH]ncc34)nc(N3CCOCC3)n2)C1 (stereo not shown) [Compound 1091, 3-22-{[4-1-(1H-indazol-4-yl)-6-5-(morpholin-4-yl)-1,3,5-triazin-2-yl]oxy}-N,N-dimethylpiperidine-1-carboxamide] | < 5 µM |
| NS(=O)(=O)Nc1ccc(Oc2nc(-c3cccc4[nH]ncc34)nc(N3CCOCC3)n2)cc1 [Compound 1092, N-(4-14-{[4-1-(1H-indazol-4-yl)-6-5-(morpholin-4-yl)-1,3,5-triazin-2-yl]oxy}phenyl)aminosulfonamide] | < 5 µM |
| CS(=O)(=O)Nc1ccc(Oc2nc(-c3cccc4[nH]ncc34)nc(N3CCOCC3)n2)cc1 [Compound 1093, N-(4-14-{[4-1-(1H-indazol-4-yl)-6-5-(morpholin-4-yl)-1,3,5-triazin-2-yl]oxy}phenyl)methanesulfonamide] | < 5 µM |
| NS(=O)(=O)N[C@H]1CC[C@H](Oc2nc(-c3cccc4[nH]ncc34)nc(N3CCOCC3)n2)CC1 [Compound 1094, N-[(1r,4r)-4-9-{[4-1-(1H-indazol-4-yl)-6-5-(morpholin-4-yl)-1,3,5-triazin-2-yl]oxy}cyclohexyl]aminosulfonamide] | < 5 µM |
| CS(=O)(=O)N[C@H]1CC[C@H](Oc2nc(-c3cccc4[nH]ncc34)nc(N3CCOCC3)n2)CC1 [Compound 1095, N-[(1r,4r)-4-9-{[4-1-(1H-indazol-4-yl)-6-5-(morpholin-4-yl)-1,3,5-triazin-2-yl]oxy}cyclohexyl]methanesulfonamide] | < 5 µM |
| CS(=O)(=O)N1CCC(COc2nc(-c3cccc4[nH]ncc34)nc(N3CCOCC3)n2)CC1 [Compound 1096, 4-(4-(1H-indazol-4-yl)-6-((1-(methylsulfonyl)piperidin-4-yl)methoxy)-1,3,5-triazin-2-yl)morpholine] | < 5 µM |
| CC1COCC(C)N1c1nc(Oc2ccc(C(=O)N(C)C)cc2)nc(-c2cccc3[nH]ncc23)n1 (stereo not shown) [Compound 1097, 4-9-{[4-5-(3-28,5-32-dimethylmorpholin-4-yl)-6-1-(1H-indazol-4-yl)-1,3,5-triazin-2-yl]oxy}-N,N-dimethylbenzamide] | < 5 µM |
